Source: PubChem BioAssay AID330 (DTP/NCI, 2004)
Where “and” joins values, the source holds several entries; their conditions need not be identical. Equal entries are not always repeated. Toxic doses and inconclusive results are not listed. The calls were made as follows: active = survival T/C of 150% or more; inactive = T/C below 125% in these data.

Tested on: P388 leukemia ip, CD2F1 mice, survival T/C
Test: NCI In Vivo Anticancer Drug Screen. Data for tumor model P388 Leukemia (intraperitoneal) in CD2F1 (CDF1) mice
Conditions: endpoint: median survival time, higher = longer survival
Method in brief: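 Mice carrying the transplanted tumor received test compound or vehicle. Survival was recorded in each group, and the value is the treated-group measurement divided by that of the vehicle-treated control group.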

[1] = dose: 25.0 mg/kg/injection, schedule: Q01DX009 (ip), vehicle: Klucel (hydroxypropylcellulose) (HPC)
[2] = dose: 50.0 mg/kg/injection, schedule: Q01DX009 (ip), vehicle: Klucel (hydroxypropylcellulose) (HPC)
[3] = dose: 100.0 mg/kg/injection, schedule: Q01DX009 (ip), vehicle: Klucel (hydroxypropylcellulose) (HPC)
[4] = dose: 200.0 mg/kg/injection, schedule: Q01DX009 (ip), vehicle: Klucel (hydroxypropylcellulose) (HPC)

Measured: T/C

O=S(=O)(NN=C(c1ccccc1)c1ccccc1)c1ccccc1
inactive: [1] 99 % of control | [2] 93 % of control | [3] 101 % of control | [4] 106 % of control | dose: 400.0 mg/kg/injection, schedule: Q01DX009 (ip), vehicle: Klucel (hydroxypropylcellulose) (HPC) 90 % of control

CCOc1ccc(-n2c(-c3ccc(F)cc3)c(N=Nc3ccccc3)sc2=N)cc1
inactive: dose: 60.0 mg/kg/injection, schedule: Q01DX005 (ip), vehicle: Klucel (hydroxypropylcellulose) (HPC) 96 % of control | dose: 120.0 mg/kg/injection, schedule: Q01DX005 (ip), vehicle: Klucel (hydroxypropylcellulose) (HPC) 102 % of control | dose: 240.0 mg/kg/injection, schedule: Q01DX005 (ip), vehicle: Klucel (hydroxypropylcellulose) (HPC) 108 % of control

CC(=O)Nc1ccc(CC#N)cc1
inactive: dose: 5.0 mg/kg/injection, schedule: Q01DX009 (ip), vehicle: saline sonified 100 % of control | dose: 10.0 mg/kg/injection, schedule: Q01DX009 (ip), vehicle: saline sonified 100 % of control | dose: 20.0 mg/kg/injection, schedule: Q01DX009 (ip), vehicle: saline sonified 113 % of control

N#CCCCN1C(=O)c2ccccc2C1=O
inactive: [2] 102 % of control | [3] 104 % of control

N#CCSCC(NC(=O)c1ccccc1)C(=O)O (stereo not given)
inactive: dose: 50.0 mg/kg/injection, schedule: Q01DX005 (ip), vehicle: saline 100 % of control | dose: 100.0 mg/kg/injection, schedule: Q01DX005 (ip), vehicle: saline 87 % of control | dose: 200.0 mg/kg/injection, schedule: Q01DX005 (ip), vehicle: saline 97 % of control

Cc1c2cnccc2c(C)c2c1c1c(C)c3cnccc3c(C)c1n2C
inactive: dose: 6.25 mg/kg/injection, schedule: Q04DX002 (ip), vehicle: distilled water + Tween-80 94 % of control | dose: 12.5 mg/kg/injection, schedule: Q04DX002 (ip), vehicle: distilled water + Tween-80 97 % of control | dose: 25.0 mg/kg/injection, schedule: Q04DX002 (ip), vehicle: distilled water + Tween-80 102 % of control | dose: 50.0 mg/kg/injection, schedule: Q04DX002 (ip), vehicle: distilled water + Tween-80 108 % of control | dose: 100.0 mg/kg/injection, schedule: Q04DX002 (ip), vehicle: distilled water + Tween-80 94 % of control

O=C(NN1C(=O)CS(=O)(=O)C1c1ccc(Cl)cc1Cl)c1ccncc1 (stereo not given)
inactive: dose: 50.0 mg/kg/injection, schedule: Q01DX005 (ip), vehicle: saline with Tween-80 100 % of control | dose: 100.0 mg/kg/injection, schedule: Q01DX005 (ip), vehicle: saline with Tween-80 100 % of control | dose: 200.0 mg/kg/injection, schedule: Q01DX005 (ip), vehicle: saline with Tween-80 102 % of control

NC(Cc1c[nH]c2ccccc12)C(=O)O (stereo not given)
inactive: [2] 99 % of control | [3] 107 % of control | [4] 104 % of control

CCCCCCCCOCC(O)CN(CCO)CCO (stereo not given)
inactive: dose: 12.5 mg/kg/injection, schedule: Q01DX009 (ip), vehicle: saline 107 % of control | dose: 25.0 mg/kg/injection, schedule: Q01DX009 (ip), vehicle: saline 92 % of control | dose: 50.0 mg/kg/injection, schedule: Q01DX009 (ip), vehicle: saline 94 % of control and 97 % of control

CNC(=S)NNc1ccccn1
inactive: dose: 12.5 mg/kg/injection, schedule: Q01DX009 (ip), vehicle: other 105 % of control | dose: 25.0 mg/kg/injection, schedule: Q01DX009 (ip), vehicle: other 102 % of control | dose: 50.0 mg/kg/injection, schedule: Q01DX009 (ip), vehicle: other 104 % of control | dose: 100.0 mg/kg/injection, schedule: Q01DX009 (ip), vehicle: other 101 % of control | dose: 200.0 mg/kg/injection, schedule: Q01DX009 (ip), vehicle: other 95 % of control

C[n+]1c(-c2cccc(-c3ccccc3)c2)c2cc([N+](=O)[O-])ccc2c2ccccc21
inactive: dose: 1.56 mg/kg/injection, schedule: Q01DX009 (ip), vehicle: Klucel (hydroxypropylcellulose) (HPC) 103 % of control | dose: 3.13 mg/kg/injection, schedule: Q01DX009 (ip), vehicle: Klucel (hydroxypropylcellulose) (HPC) 103 % of control | dose: 6.25 mg/kg/injection, schedule: Q01DX009 (ip), vehicle: Klucel (hydroxypropylcellulose) (HPC) 106 % of control | dose: 12.5 mg/kg/injection, schedule: Q01DX009 (ip), vehicle: Klucel (hydroxypropylcellulose) (HPC) 111 % of control | [1] 109 % of control
